# Results from patent US11044937B2, “Solution comprising nicotine in unprotonated form and protonated form” (Nicoventures Holdings Limited, priority 2014, dated 2021).
# Like-named read-outs stand apart in the source and are kept apart here.
# Legend:
# [1] = on heating in an electronic vapor provision system; compared to many other acids
# [2] = Description: The determination of pKa values of nicotine in glycerol/water systems was carried out using the basic approach described in “Spectroscopic investigations into the acid-base properties of nicotine at different temperatures”, Peter M. Clayton, Carl A. Vas, Tam T. T. Bui, Alex F. Drake and Kevin McAdam, Anal. Methods, 2013, 5, 81-88, and summarized below. Because the system is predominately non-aqueous the parameter psKa2 was measured, where subscript s refers to the solvent composition in this largely non-aqueous system, and subscript 2 refers to the pKa value of the pyrrolidyl nitrogen.
# Further information on the determination of pKa values of nicotine is provided in “Use of chiroptical spectroscopy to determine the ionisation status of (S)-nicotine in e-cigarette formulations and snus”, Clayton et al, ST 49, CORESTA Congress, Qubec City, Canada, 12-16 Oct. 2014 (available at http://www.bat-science.com/groupms/sites/BAT_9GVJXS.nsf/vwPagesWebLive/DO9PVC3 G/$FILE/CORE STA_PC_2014.pdf).
# A range of glycerol/water/nicotine solutions were prepared, with the water concentration fixed at 9%, the nicotine concentration varying from 30 μg/ml to 3 mg/ml; and the glycerol content comprising the remainder of the solutions.
# Simultaneous UV & CD spectra of glycerol/s-nicotine/water solutions were measured on the Applied Photophysics Ltd (Leatherhead, UK) Chiracsan Plus spectrometer. The UV absorbance & CD spectra were measured between 300-200 nm region, with various pathlengths depending upon the nicotine concentration of the solution—10 mm, 5 mm, 2 mm, 1 mm, 0.5 mm, 0.1 mm and 0.01 mm pathlengths. The instrument was flushed continuously with pure evaporated nitrogen throughout the measurements. Throughout measurements spectra were recorded with a 0.5 nm step size, a 1 s measurement time-per-point and a spectral bandwidth of 2 nm. Where possible, all CD spectra were smoothed with a window factor of 4 using the Savitzky-Golay method for better presentation.
# Solutions of S-Nicotine in glycerol/water were pH titrated at 23° C. The pH of these solutions was raised towards alkaline by adding small aliquots of NaOH (˜pH10) and then lowered to pH2 by adding small aliquots of HCl. A series of 0.1M, 0.5M, 1M, 5M and 10M of HCl and NaOH solutions were used during the pH titration. pHs were measured at 23° C. using a Corning pH105 pH meter with a RMS pH electrode. […] Due to the viscosity of the solutions, and the optical density in the CD spectra of the high nicotine concentration solutions, very small path-length cells were required for nicotine concentrations above 3 mg/ml.
SMILES,level of acid transfer to the aerosol [1],production of degradation products [1],"psKa2 ([2]; at 30 mg/ml nicotine concentration, from curve fitting (regression fit to FIG. 1))","psKa2 ([2]; nicotine 0.03 g/L (0.185 mM), 9% water, nicotine/glycerol system, 23° C.)","psKa2 ([2]; nicotine 0.06 g/L (0.370 mM), 9% water, nicotine/glycerol system, 23° C.)","psKa2 ([2]; nicotine 0.3 g/L (1.85 mM), 9% water, nicotine/glycerol system, 23° C.)","psKa2 ([2]; nicotine 0.6 g/L (3.70 mM), 9% water, nicotine/glycerol system, 23° C.)","psKa2 ([2]; nicotine 3 g/L (18.53 mM), 9% water, nicotine/glycerol system, 23° C.)"
O=C(O)c1ccccc1 [benzoic acid],greater,less,,,,,,
"CN1CCC[C@H]1c1cccnc1 [nicotine, 3-(1-methylpyrrolidin-2-yl) pyridine]",,,7.26,7.49,7.34,7.30,7.27,7.25
CC(=O)CCC(=O)O [levulinic acid],greater,,,,,,,
